Series [1] relates to man. Conditions: in vivo; cited from earlier work.
Series [2] concerns σ receptors. Conditions: cited from earlier work.
Series [3] has as its target σ receptor. Nature of the series: In vitro binding to σ receptors ([3H]-DTG or [3H]-3-PPP). Also on record: species or system calf. Particulars: [3H]-DTG. The method, then:
(§1) The products are tested on each receptor at 5 different concentrations (10^-5 M, 10^-6 M, 10^-7 M, 10^-8 M and 10^-9 M) in triplicate. When the binding coefficient IC50 (concentration of product which displaces 50% of the radioligand) is less than a concentration of 10^-6 M, the Ki is measured by using 12 concentrations of the product.
(§2) The receptors for which the affinity of the compounds of the invention was determined, the tissue chosen, the concentration used for determining the non-specific fraction and the radioligand used to label the receptor are shown in Table A.
10^-6 M Calf hippocampus

Series [4] deals with hypermotility induced by amphetamine. The experiment in a line: Antagonism of hypermotility induced by amphetamine. Conditions: 64 mg/kg, IP, mice; d-amphetamine 4 mg.kg^-1 IP. The class given is in vivo, NMRI-CERJ mice. The method, then:
This test was developed by Costall B., et al. (Brain Research, 1977, 123, 89-111).
Groups of 10 NMRI-CERJ mice are injected intraperitoneally (IP) with 4 mg.kg^-1 of d-amphetamine immediately after the compound to be tested (also injected by the IP route) and the mice are placed in an activity cage for 30 minutes.
The number of interruptions of photoelectric cells is recorded, as well as the stereotypical behavior.
The activity of the tested compounds is expressed as percentage of antagonism of the hyperactivity induced by amphetamine.

Series [5] has as its target T1, σ1 receptor (Cavia porcellus, UniProt Q60492).
T1 construct: Guinea pig brain; from tissue; host or cells: guinea pig brain
The experiment in a line: In vitro binding to σ1 receptors ([3H]-Pentazocine). Also on record: species or system guinea pig. The method, then:
as §1, §2

Series [6] addresses T2, σ2 receptor (Cavia porcellus, UniProt H0V073).
T2 construct: Guinea pig brain; from tissue; host or cells: guinea pig brain
T2 sequence (H0V073 1-176): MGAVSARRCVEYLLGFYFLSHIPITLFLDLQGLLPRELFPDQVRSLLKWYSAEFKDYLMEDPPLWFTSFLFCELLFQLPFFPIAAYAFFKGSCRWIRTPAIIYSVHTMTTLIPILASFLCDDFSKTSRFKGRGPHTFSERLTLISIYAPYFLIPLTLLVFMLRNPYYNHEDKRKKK
Nature of the series: In vitro binding to σ2 receptors ([3H]-DTG). Also on record: species or system guinea pig. The method, then: as §1, §2

In series [7] the test system is hyperactivity induced by N-allylnormetazocine. Nature of the series: Antagonism of the hyperactivity induced by N-allylnormetazocine. Conditions: 32 mg.kg^-1, rats; N-allylnormetazocine 50 mg/kg subcutaneous. The class given is in vivo. The method, then: This test was developed by Snyder S. H. et al. (J. Neuropsychiatry, 1989, 1,7-15).
Measurement of the hyperactivity induced by this product is therefore used as an alternative model for detecting the antipsychotic activity of the compounds which have an effect on σ receptors.
A group of 12 rats is treated with the compound to be tested before subcutaneous administration of 50 mg/kg of N-allylnormetazocine. 30 minutes later, the animals are placed in an activity cage for 30 minutes.
Haloperidol is used as reference compound.

The text below walks through data of US5691340A, “Benzopyran derivatives” (Adir et Compagnie, priority 1994, dated 1997).

By IC50 is commonly meant the midpoint of a concentration-inhibition curve.

T1 sequence (Q60492 whole entry): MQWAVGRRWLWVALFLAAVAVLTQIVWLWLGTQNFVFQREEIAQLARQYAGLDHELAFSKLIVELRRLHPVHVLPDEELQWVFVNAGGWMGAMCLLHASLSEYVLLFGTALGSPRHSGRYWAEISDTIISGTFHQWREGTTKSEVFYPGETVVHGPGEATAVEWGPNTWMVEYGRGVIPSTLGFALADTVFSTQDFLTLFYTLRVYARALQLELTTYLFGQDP

In the case of `C=CCN1CCC2(C)c3cc(O)ccc3CC1C2C` (single isomer, unassigned) [N-Allylnormetazocine], the “psychotic behavior in man” value in series [1] is listed as “induces psychotic behavior in man”. In series [2], the “agonism at σ receptors” value is “prototype agonist for σ receptors”.

`Fc1ccc2c(c1)CC(CN1CCN(Cc3ccccc3)CC1)O2` (stereo not shown) [Example 1, 1-[(5-FLUORO-2,3-DIHYDROBENZOFUR-2-YL) METHYL]-4-BENZYLPIPERAZINE]: the IC50 in series [3] is 9.1 nM. Further, the “percentage of antagonism of the hyperactivity induced by amphetamine” value in series [4] worked out at 43%.

Compound `COc1ccc2c(CN3CCN(Cc4ccccc4)CC3)cc(=O)oc2c1` [Example 3, 1-[(7-METHOXY-2-OXOCHROM-3-EN-4-YL) METHYL]-4-BENZYLPIPERAZINE] registered an IC50 in series [3] of 1.3 nM.

Regarding `c1ccc(CN2CCN(CC3Cc4ccccc4O3)CC2)cc1` (stereo not shown) [Example 4, 1-[(2,3-DIHYDROBENZOFUR-2-YL) METHYL]-4-BENZYLPIPERAZINE], the concentration for half-maximal inhibition (IC50) in series [3] is 7 nM. In series [4], the “percentage of antagonism of the hyperactivity induced by amphetamine” value turned out to be 61%.

For `CC(CN1CCN(Cc2ccccc2)CC1)Oc1ccccc1` (stereo not shown) [Example 9, 1-(2-PHENOXYPROPYL)-4-BENZYLPIPERAZINE], the IC50 in series [5] amounted to 1.3 nM; in series [6], 40 nM. Moreover, in series [7], the “antagonism of the hypermotility induced by N-allylnormetazocine” value was found to be 42%.
